Measured values reported in US11046716B2, “Beta-lactamase inhibitors” (priority 2015, dated 2021).

Legend:
[1] = test system: K. pneumoniae expressing the class A carbapenemase KPC-2 and the class B carbapenemase VIM-4; experiment: Broth microdilution MIC assay with meropenem, K. pneumoniae KPC-2 and VIM-4; format: cell-based; conditions: Fixed Mero (meropenem) 4 μg/mL; K. p. A-1797 KPC-2 VIM-4
Summary of the method: (§1)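 Strains grown 3-5 hours in CAMHB are inoculated by the CLSI broth microdilution method onto compound dilutions (16 to 0.125 μg/mL) overlaid with β-lactam at 4 μg/ml final. After 16-20 hours at 37° C, the lowest compound concentration inhibiting growth is taken as the MIC.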

[2] = test system: K. pneumoniae expressing the Class A carbapenemase KPC-2; experiment: Broth microdilution MIC assay with meropenem, K. pneumoniae KPC-2; format: cell-based; conditions: Fixed Mero (meropenem) 4 μg/mL; K. p. 156319 KPC-3
Summary of the method: as §1

[3] = test system: E. coli expressing the Class A Extended Spectrum Beta-Lactamase (ESBL) CTX-M-15; experiment: Broth microdilution MIC assay with ceftazidime, E. coli CTX-M-15; format: cell-based; conditions: Fixed CAZ (ceftazidime) 4 μg/mL; E. coli ESBL4 CTX-M-15
Summary of the method: as §1

SHV-5 = target: T1, SHV-5 (Klebsiella pneumoniae, UniProt P0A3M1); experiment: β-lactamase enzyme inhibition assay, SHV-5 (cefotaxime substrate); format: biochemical
T1 construct: made in house; host or cells: E. coli BL21(DE3)
Summary of the method: (§2)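 IC50 is the inhibitor level cutting initial substrate hydrolysis rate by 50% relative to no-inhibitor controls, after 15 min enzyme–inhibitor preincubation at 37 °C. KPC-2 read with imipenem at 300 nm, SHV-5 with cefotaxime at 260 nm; enzymes were untagged, E. coli-expressed, chromatographically purified.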

AmpC = target: T2, AmpC (Enterobacter cloacae, UniProt P05364); experiment: β-lactamase enzyme inhibition assay, p99 AmpC (nitrocefin substrate); format: biochemical
T2 construct: made in house; host or cells: E. coli BL21(DE3)
Summary of the method: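 IC50 is the inhibitor level cutting initial substrate hydrolysis rate by 50% relative to no-inhibitor controls, after 15 min enzyme–inhibitor preincubation at 37 °C. enzymes were untagged, E. coli-expressed, chromatographically purified.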

VIM-2 = target: T3, VIM-2 (Escherichia coli, UniProt Q5U7L7); experiment: β-lactamase enzyme inhibition assay, VIM-2 (nitrocefin substrate); format: biochemical; conditions: Class B; nitrocefin substrate, 486 nm; read-out: VIM-2
T3 construct: made in house; host or cells: E. coli BL21(DE3)
Summary of the method: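 First, VIM-2 purified by repeated anion exchange at pH 7.5 is mixed with inhibitor and held 15 min at 37 °C. Next, nitrocefin (final 100 μM) is dispensed and absorbance at 486 nm monitored immediately for 10 min. Rates versus uninhibited controls give IC50.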

KPC-2 = target: T4, KPC-2 (Klebsiella pneumoniae, UniProt Q9F663); experiment: β-lactamase enzyme inhibition assay, KPC-2 (imipenem substrate); format: biochemical; conditions: Class A; imipenem substrate, 300 nm; read-out: KPC-2
T4 construct: made in house; host or cells: E. coli BL21(DE3)
Summary of the method: as §2

[4] = test system: E. cloacae expressing the Class C P99; experiment: Broth microdilution MIC assay with ceftazidime, E. cloacae P99; format: cell-based; conditions: Fixed CAZ (ceftazidime) 4 μg/mL; E. cl. 144200 p99 AmpC
Summary of the method: as §1

OXA-48 = OXA-48 (UniProt Q6XEC0); experiment: β-lactamase enzyme inhibition assay, Class D oxacillinase; format: biochemical; conditions: read-out: OXA-48
[5] = test system: K. pneumoniae producing the Class D carbapenemase OXA-48; experiment: Broth microdilution MIC assay with meropenem, K. pneumoniae OXA-48; format: cell-based; conditions: Fixed Mero (meropenem) 4 μg/mL; K. p. 11978 OXA-48
Summary of the method: as §1

[6] = test system: P. aeruginosa expressing the Class B carbapenemase VIM-2; experiment: Broth microdilution MIC assay with meropenem, P. aeruginosa VIM-2; format: cell-based; conditions: Fixed Mero (meropenem) 4 μg/mL; P. aerug. 2775 VIM-2
Summary of the method: as §1

T2 sequence (P05364 21-381): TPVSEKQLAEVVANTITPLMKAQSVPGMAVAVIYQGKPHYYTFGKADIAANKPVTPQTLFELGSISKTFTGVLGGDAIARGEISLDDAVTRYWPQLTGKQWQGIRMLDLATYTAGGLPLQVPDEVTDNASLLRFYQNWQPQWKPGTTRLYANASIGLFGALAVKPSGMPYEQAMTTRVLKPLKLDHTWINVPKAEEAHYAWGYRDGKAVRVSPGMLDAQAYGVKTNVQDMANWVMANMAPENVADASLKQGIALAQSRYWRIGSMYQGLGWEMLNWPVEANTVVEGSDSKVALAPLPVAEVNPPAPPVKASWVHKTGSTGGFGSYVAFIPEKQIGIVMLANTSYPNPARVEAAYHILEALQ
T1 sequence (P0A3M1 22-286): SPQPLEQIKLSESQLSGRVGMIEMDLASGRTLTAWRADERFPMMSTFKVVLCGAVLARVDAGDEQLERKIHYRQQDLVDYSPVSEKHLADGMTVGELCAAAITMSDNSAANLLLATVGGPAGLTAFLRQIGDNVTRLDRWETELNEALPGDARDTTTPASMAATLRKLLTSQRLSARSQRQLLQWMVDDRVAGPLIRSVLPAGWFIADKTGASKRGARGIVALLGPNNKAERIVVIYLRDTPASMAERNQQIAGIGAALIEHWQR
T4 sequence (Q9F663 25-293, looked up): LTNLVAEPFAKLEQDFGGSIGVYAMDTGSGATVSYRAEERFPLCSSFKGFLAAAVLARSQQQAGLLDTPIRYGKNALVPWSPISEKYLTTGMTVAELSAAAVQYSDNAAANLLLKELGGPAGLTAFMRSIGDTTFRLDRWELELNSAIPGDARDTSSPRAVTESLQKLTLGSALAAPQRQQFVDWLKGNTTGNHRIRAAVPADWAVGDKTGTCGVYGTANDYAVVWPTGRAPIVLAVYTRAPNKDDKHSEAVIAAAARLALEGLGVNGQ

Structure (SMILES)	MIC (μg/mL) of Exemplary Compounds in presence of fixed β-lactams: K. p. A-1797 KPC-2 VIM-4 [1]	MIC (μg/mL) of Exemplary Compounds in presence of fixed β-lactams: K. p. 156319 KPC-3 [2]	MIC (μg/mL) of Exemplary Compounds in presence of fixed β-lactams: E. coli ESBL4 CTX-M-15 [3]	IC50 (SHV-5) [nM]	IC50 (AmpC) [nM]	IC50 (VIM-2) [nM]	IC50 (KPC-2) [nM]	MIC (μg/mL) of Exemplary Compounds in presence of fixed β-lactams: E. cl. 144200 p99 AmpC [4]	IC50 (OXA-48) [nM]	MIC (μg/mL) of Exemplary Compounds in presence of fixed β-lactams: K. p. 11978 OXA-48 [5]	MIC (μg/mL) of Exemplary Compounds in presence of fixed β-lactams: P. aerug. 2775 VIM-2 [6]
CC(C)(C(=O)N[C@H]1Cc2cccc(C(=O)O)c2OB1O)n1cc(CNC(=N)N)nn1 [Example 39, (R)-3-(2-(4-(guanidinomethyl)-1H-1,2,3-triazol-1-yl)-2-methylpropanamido)-2-hydroxy-3,4-dihydro-2H-benzo[e][1,2]oxaborinine-8-carboxylic acid]	B (B represents an MIC between 1 and 16 μg/mL inclusive)	B (B represents an MIC between 1 and 16 μg/mL inclusive)	C (C represents an MIC of <1 μg/mL)	< 100	< 100	< 100	< 100	C (C represents an MIC of <1 μg/mL)	100 to 1000	B (B represents an MIC between 1 and 16 μg/mL inclusive)	C (C represents an MIC of <1 μg/mL)
NCc1cn(CC(=O)N[C@H]2Cc3cccc(C(=O)O)c3OB2O)nn1 [Example 2, (R)-3-(2-(4-(aminomethyl)-1H-1,2,3-triazol-1-yl)acetamido)-2-hydroxy-3,4-dihydro-2H-benzo[e][1,2]oxaborinine-8-carboxylic acid]	C (C represents an MIC of <1 μg/mL)	C (C represents an MIC of <1 μg/mL)	C (C represents an MIC of <1 μg/mL)	< 100	< 100	< 100	< 100	C (C represents an MIC of <1 μg/mL)	100 to 1000	B (B represents an MIC between 1 and 16 μg/mL inclusive)	C (C represents an MIC of <1 μg/mL)
NCCc1nnnn1CC(=O)N[C@H]1Cc2cccc(C(=O)O)c2OB1O [Example 102, (R)-3-(2-(5-(2-aminoethyl)-1H-tetrazol-1-yl)acetamido)-2-hydroxy-3,4-dihydro-2H-benzo[e][1,2]oxaborinine-8-carboxylic acid]	B (B represents an MIC between 1 and 16 μg/mL inclusive)	B (B represents an MIC between 1 and 16 μg/mL inclusive)	C (C represents an MIC of <1 μg/mL)	100 to 1000	< 100	< 100	< 100	C (C represents an MIC of <1 μg/mL)	100 to 1000	B (B represents an MIC between 1 and 16 μg/mL inclusive)	C (C represents an MIC of <1 μg/mL)
